1 substance from US20060014717A1, “Therapeutic compositions for use in prophylaxis or treatment of diarrheas” (priority 2002, published 2006) can be followed below.

Experiment in all cases: Binding of 35S-labeled Helicobacter species to glycosphingolipids on thin-layer chromatograms
Test [1] has as its system H. pylori CCUG 17875. Further details: species or system Helicobacter pylori. The text has this:
(§1) Gastric species examined in the present study included, Helicobacter mustelae ferret isolates from the National Collection of Type Cultures (NCTC) and the Culture Collection of the University of Gothenberg (CCUG), NCTC 12198/CCUG 25175 (equivalent strains from different sources tested), CCUG 23950 and CCUG 23951, Helicobacterfelis CCUG 28539 from a cat, in addition, H. pylori strains CCUG 17874, CCUG 17875 and a clinical isolate 119/95 were used. Enterohepatic helicobacters of animal origin were purchased from the CCUG including, Helicobacter canes CCUG 33835, Helicobacter bilis CCUG 38995, Helicobacter hepaticus CCUG 33637, and Helicobacterfennelliae (CCUG 18820).
(§2) Binding of Helicobacter spp. to glycosphingolipids, both acid and non-acidfractions. Glycosphingolipids were isolated by standard procedures (Karlsson, 1987). The identity of the purified glycosphingolipids was confirmed by mass spectrometry (Samuelsson et al., 1990), proton NMR spectroscopy (Koerner et al., 1983) and degradation studies (Stellner et al., 1973; Yang and Hakomori, 1971).
Mixtures of glycosphingolipids (40 μg/lane) or pure compounds (2 μg/lane) were subsequently separated using thin-layer chromatography (TLC) on glass- or aluminum-backed silica gel 60 HPTLC plates (Merck, Darmstadt, Germany), with chloroform/methanot/water (60:35:8, by volume) as solvent system. […]

The test system of test [2] is H. pylori CCUG 17875. Further details: species or system Helicobacter pylori; key: + denotes a significant darkening on the autoradiogram when 2 μg (or 40 μg in the case of the last sample) was applied to TLC plates; − denotes no binding. As to conditions: 2 μg (40 μg for the glycosphingolipid fraction) on TLC plates.
Source text: as §1, §2
(§3) Mixtures of glycosphingolipids (40 μg/lane) or pure compounds (2 μg/lane) were subsequently separated using thin-layer chromatography (TLC) on glass- or aluminum-backed silica gel 60 HPTLC plates (Merck, Darmstadt, Germany), with chloroform/methanot/water (60:35:8, by volume) as solvent system. Chemical detection was accomplished by anisaldehyde (Waldi, 1962). Helicobacter spp. were subjected to ^35S-labeling (Angstrom et al., 1998) and suspended in PBS (10^8 CFU/ml) with a specific activity of approximately 1 cpm per 100 organisms. Binding of the labeled-bacteria to glycosphingolipids separated by TLC was achieved using a bacterial-overlay technique coupled with autoradiography detection using XAR-5 X-ray films (Eastman Kodak, Rochester, N.Y.) as previously described (Hansson et al., 1985).

The subject of the next test is H. pylori CCUG 17874. Further details: species or system Helicobacter pylori; key: An significant darkening on the autoradiogram when 2 μg of the glycosphingolipid was applied on the thin-layer plate is denoted by +; − denotes no binding. The conditions noted are these: 2 μg (40 μg for the glycosphingolipid fraction) on TLC plates.
Source text: as §1, §2, §3

Another test concerns H. felis CCUG 28539. Further details: species or system Helicobacter felis; key: An significant darkening on the autoradiogram when 2 μg of the glycosphingolipid was applied on the thin-layer plate is denoted by +; − denotes no binding. As to conditions: 2 μg (40 μg for the glycosphingolipid fraction) on TLC plates.
Source text: as §1, §2, §3

The test system of a further test is H. canis CCUG 33835. Further details: species or system Helicobacter canis; key: An significant darkening on the autoradiogram when 2 μg of the glycosphingolipid was applied on the thin-layer plate is denoted by +; − denotes no binding. The conditions noted are these: 2 μg (40 μg for the glycosphingolipid fraction) on TLC plates.
Source text: as §1, §2, §3

In the next test the test system is H. hepaticus CCUG 33637. Further details: species or system Helicobacter hepaticus; key: An significant darkening on the autoradiogram when 2 μg of the glycosphingolipid was applied on the thin-layer plate is denoted by +; − denotes no binding. As to conditions: 2 μg (40 μg for the glycosphingolipid fraction) on TLC plates.
Source text: as §1, §2, §3

The test system of the next test is H. mustelae 25715. Further details: species or system Helicobacter mustelae; key: An significant darkening on the autoradiogram when 2 μg of the glycosphingolipid was applied on the thin-layer plate is denoted by +; − denotes no binding. The conditions noted are these: 2 μg (40 μg for the glycosphingolipid fraction) on TLC plates.
Source text: as §1, §2, §3

Test [3] concerns H. mustelae CCUG 23950 & 23951. Further details: species or system Helicobacter mustelae; key: An significant darkening on the autoradiogram when 2 μg of the glycosphingolipid was applied on the thin-layer plate is denoted by +; − denotes no binding. The conditions noted are these: 2 μg (40 μg for the glycosphingolipid fraction) on TLC plates.
Source text: as §1, §2, §3

The subject of the next test is H. bilis CCUG 38995. Further details: species or system Helicobacter bilis; key: An significant darkening on the autoradiogram when 2 μg of the glycosphingolipid was applied on the thin-layer plate is denoted by +; − denotes no binding. As to conditions: 2 μg (40 μg for the glycosphingolipid fraction) on TLC plates.
Source text: as §1, §2, §3

For the substance “Fucα2Galβ3(Fucα4)GlcNAcβ3Galβ4Glcβ1Cer [No. 25]”, the “Binding of H. pylori CCUG 17875 to glycosphingolipid, in words” value with H. pylori CCUG 17875 [1] is listed as “only observed for H. pylori CCUG 17875”. Besides, in the test with H. pylori CCUG 17875 [2], the “Binding of glycosphingolipids to H.pylori 17875” value is “+”. For the same substance, the “Binding of glycosphingolipids to H.pylori 17874” value with H. pylori CCUG 17874 is “−”. Besides, the “Binding of glycosphingolipids to H.felis 28539” value with H. felis CCUG 28539 is “−”. Also, in the test with H. canis CCUG 33835, the “Binding of glycosphingolipids to H.canis 33835” value is listed as “−”. Further, the “Binding of glycosphingolipids to H.hepaticus 33637” value in the test on H. hepaticus CCUG 33637 is reported as “−”. In the test on H. mustelae 25715, the “Binding of glycosphingolipids to H.mustelae 25715” value is “−”. Further, the “Binding of glycosphingolipids to H.mustelae 23950 & 23951” value in [3] is listed as “−”. Moreover, the “Binding of glycosphingolipids to H.bilis 38995” value in the test on H. bilis CCUG 38995 is “−”.
